Experimental data: PubChem BioAssay (NCI)
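All cell lines were grown in 96-well plates and treated with compound for 48 hours. GI50: concentration for 50% inhibition of growth. At the TGI there is no net growth.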

What was measured:
Assay in all cases: NCI anticancer screen, dose series, 48 h
MDA-MB-231 breast = test system: MDA-MB-231 breast
SW-620 colon = test system: SW-620 colon
NCI/ADR-RES ovarian = test system: NCI/ADR-RES ovarian
HOP-62 NSCLC = test system: HOP-62 NSCLC
SK-MEL-2 melanoma = test system: SK-MEL-2 melanoma
K-562 leukemia = test system: K-562 leukemia
A549 NSCLC = test system: A549 NSCLC
CCRF-CEM leukemia = test system: CCRF-CEM leukemia
LOX IMVI melanoma = test system: LOX IMVI melanoma
CAKI-1 renal = test system: CAKI-1 renal
MCF7 breast = test system: MCF7 breast
HT29 colon = test system: HT29 colon
NCI-H460 lung = test system: NCI-H460 lung
U251 CNS = test system: U251 CNS
SF-539 CNS = test system: SF-539 CNS
TK-10 renal = test system: TK-10 renal
PC-3 prostate = test system: PC-3 prostate
MALME-3M melanoma = test system: MALME-3M melanoma
NCI-H23 lung = test system: NCI-H23 lung
HCT-15 colon = test system: HCT-15 colon
786-0 renal = test system: 786-0 renal
SN12C renal = test system: SN12C renal
IGROV1 ovarian = test system: IGROV1 ovarian
OVCAR-4 ovarian = test system: OVCAR-4 ovarian
HCT-116 colon = test system: HCT-116 colon
UACC-257 melanoma = test system: UACC-257 melanoma
BT-549 breast = test system: BT-549 breast
SK-OV-3 ovarian = test system: SK-OV-3 ovarian
HL-60(TB) leukemia = test system: HL-60(TB) leukemia
SK-MEL-5 melanoma = test system: SK-MEL-5 melanoma
OVCAR-3 ovarian = test system: OVCAR-3 ovarian
M14 melanoma = test system: M14 melanoma
SNB-75 CNS = test system: SNB-75 CNS
COLO 205 colon = test system: COLO 205 colon
NCI-H226 lung = test system: NCI-H226 lung
UO-31 renal = test system: UO-31 renal
RPMI-8226 leukemia = test system: RPMI-8226 leukemia
SF-295 CNS = test system: SF-295 CNS
SR leukemia = test system: SR leukemia
OVCAR-8 ovarian = test system: OVCAR-8 ovarian
A498 renal = test system: A498 renal
KM12 colon = test system: KM12 colon
EKVX NSCLC = test system: EKVX NSCLC
RXF 393 renal = test system: RXF 393 renal
SK-MEL-28 melanoma = test system: SK-MEL-28 melanoma
NCI-H522 lung = test system: NCI-H522 lung
HOP-92 NSCLC = test system: HOP-92 NSCLC
SNB-19 CNS = test system: SNB-19 CNS
HCC-2998 colon = test system: HCC-2998 colon
DU-145 prostate = test system: DU-145 prostate
ACHN renal = test system: ACHN renal
HS 578T breast = test system: HS 578T breast
MDA-MB-435 = test system: MDA-MB-435
OVCAR-5 ovarian = test system: OVCAR-5 ovarian
T-47D breast = test system: T-47D breast
MOLT-4 leukemia = test system: MOLT-4 leukemia
UACC-62 melanoma = test system: UACC-62 melanoma
SF-268 CNS = test system: SF-268 CNS

`CC(C)c1c(-c2ccccc2)nc2c(C#N)c[nH]n2c1=O` was tested. Which GI50 (MDA-MB-231 breast) did it give?
Its GI50 is 33 µM.

And the TGI (MDA-MB-231 breast)?
Its TGI is over 100 µM.

What about the GI50 (SW-620 colon) of the same compound?
Its GI50 is 35.3 µM.

And the TGI (SW-620 colon)?
The TGI was over 100 µM.

And the GI50 (NCI/ADR-RES ovarian)?
Its GI50 is 31.2 µM.

And the TGI (NCI/ADR-RES ovarian)?
The TGI was over 100 µM.

And the GI50 (HOP-62 NSCLC)?
The GI50 was 25.4 µM.

And the TGI (HOP-62 NSCLC)?
The TGI was over 95.7 µM.

What about the GI50 (SK-MEL-2 melanoma) of the same compound?
Its GI50 is 27.7 µM.

And the TGI (SK-MEL-2 melanoma)?
Its TGI is 78.8 µM.

What about the GI50 (K-562 leukemia) of the same compound?
The GI50 was 33.8 µM.

And the TGI (K-562 leukemia)?
Its TGI is over 100 µM.

What about the GI50 (A549 NSCLC) of the same compound?
Its GI50 is 33.4 µM.

What about the TGI (A549 NSCLC) of the same compound?
Its TGI is over 100 µM.

What about the GI50 (CCRF-CEM leukemia) of the same compound?
Its GI50 is 28.5 µM.

What about the TGI (CCRF-CEM leukemia) of the same compound?
The TGI was over 100 µM.

And the GI50 (LOX IMVI melanoma)?
The GI50 was 29 µM.

And the TGI (LOX IMVI melanoma)?
The TGI was over 91.2 µM.

What about the GI50 (CAKI-1 renal) of the same compound?
The GI50 was 31.2 µM.

And the TGI (CAKI-1 renal)?
Its TGI is over 100 µM.

What about the GI50 (MCF7 breast) of the same compound?
The GI50 was 26.2 µM.

And the TGI (MCF7 breast)?
Its TGI is over 91.5 µM.

And the GI50 (HT29 colon)?
The GI50 was 33.9 µM.

And the TGI (HT29 colon)?
The TGI was over 100 µM.

And the GI50 (NCI-H460 lung)?
The GI50 was 32.6 µM.

And the TGI (NCI-H460 lung)?
The TGI was over 100 µM.

What about the GI50 (U251 CNS) of the same compound?
Its GI50 is 33.8 µM.

And the TGI (U251 CNS)?
The TGI was over 100 µM.

What about the GI50 (SF-539 CNS) of the same compound?
Its GI50 is 29.4 µM.

What about the TGI (SF-539 CNS) of the same compound?
Its TGI is over 100 µM.

What about the GI50 (TK-10 renal) of the same compound?
Its GI50 is 29.1 µM.

And the TGI (TK-10 renal)?
Its TGI is over 100 µM.

And the GI50 (PC-3 prostate)?
The GI50 was 25.2 µM.

And the TGI (PC-3 prostate)?
Its TGI is over 73.5 µM.

What about the GI50 (MALME-3M melanoma) of the same compound?
Its GI50 is 24.3 µM.

And the TGI (MALME-3M melanoma)?
Its TGI is 73.3 µM.

What about the GI50 (NCI-H23 lung) of the same compound?
The GI50 was 26.1 µM.

And the TGI (NCI-H23 lung)?
Its TGI is over 79.6 µM.

And the GI50 (HCT-15 colon)?
The GI50 was 31.8 µM.

What about the TGI (HCT-15 colon) of the same compound?
The TGI was over 100 µM.

What about the GI50 (786-0 renal) of the same compound?
The GI50 was 35.1 µM.

What about the TGI (786-0 renal) of the same compound?
The TGI was over 100 µM.

And the GI50 (SN12C renal)?
The GI50 was 29.2 µM.

What about the TGI (SN12C renal) of the same compound?
Its TGI is over 100 µM.

What about the GI50 (IGROV1 ovarian) of the same compound?
Its GI50 is 34.3 µM.

What about the TGI (IGROV1 ovarian) of the same compound?
Its TGI is over 100 µM.

What about the GI50 (OVCAR-4 ovarian) of the same compound?
Its GI50 is 25.6 µM.

And the TGI (OVCAR-4 ovarian)?
The TGI was over 90 µM.

What about the GI50 (HCT-116 colon) of the same compound?
Its GI50 is 30.5 µM.

And the TGI (HCT-116 colon)?
Its TGI is over 100 µM.

What about the GI50 (UACC-257 melanoma) of the same compound?
The GI50 was 23.1 µM.

What about the TGI (UACC-257 melanoma) of the same compound?
The TGI was 66.9 µM.

What about the GI50 (BT-549 breast) of the same compound?
The GI50 was 26.2 µM.

And the TGI (BT-549 breast)?
Its TGI is over 95.5 µM.

What about the GI50 (SK-OV-3 ovarian) of the same compound?
Its GI50 is 27.2 µM.

And the TGI (SK-OV-3 ovarian)?
Its TGI is over 88.6 µM.

What about the GI50 (HL-60(TB) leukemia) of the same compound?
Its GI50 is 22.3 µM.

And the TGI (HL-60(TB) leukemia)?
Its TGI is 60.4 µM.

And the GI50 (SK-MEL-5 melanoma)?
Its GI50 is 19.6 µM.

What about the TGI (SK-MEL-5 melanoma) of the same compound?
Its TGI is 40.4 µM.

And the GI50 (OVCAR-3 ovarian)?
Its GI50 is 25.2 µM.

What about the TGI (OVCAR-3 ovarian) of the same compound?
The TGI was 63.8 µM.

And the GI50 (M14 melanoma)?
The GI50 was 30.6 µM.

What about the TGI (M14 melanoma) of the same compound?
The TGI was over 100 µM.

What about the GI50 (SNB-75 CNS) of the same compound?
The GI50 was 21.4 µM.

What about the TGI (SNB-75 CNS) of the same compound?
The TGI was over 95.2 µM.

What about the GI50 (COLO 205 colon) of the same compound?
Its GI50 is 25.1 µM.

What about the TGI (COLO 205 colon) of the same compound?
Its TGI is 75.2 µM.

What about the GI50 (NCI-H226 lung) of the same compound?
The GI50 was 27 µM.

What about the TGI (NCI-H226 lung) of the same compound?
Its TGI is over 87.7 µM.

What about the GI50 (UO-31 renal) of the same compound?
The GI50 was 26.5 µM.

And the TGI (UO-31 renal)?
Its TGI is 98.6 µM.

And the GI50 (RPMI-8226 leukemia)?
The GI50 was 24.2 µM.

And the TGI (RPMI-8226 leukemia)?
The TGI was 67.7 µM.

What about the GI50 (SF-295 CNS) of the same compound?
The GI50 was 28.7 µM.

What about the TGI (SF-295 CNS) of the same compound?
The TGI was over 84 µM.

What about the GI50 (SR leukemia) of the same compound?
The GI50 was 31.1 µM.

And the TGI (SR leukemia)?
The TGI was over 100 µM.

And the GI50 (OVCAR-8 ovarian)?
The GI50 was 32.2 µM.

What about the TGI (OVCAR-8 ovarian) of the same compound?
Its TGI is over 100 µM.

What about the GI50 (A498 renal) of the same compound?
The GI50 was 13 µM.

What about the TGI (A498 renal) of the same compound?
Its TGI is 51.1 µM.

What about the GI50 (KM12 colon) of the same compound?
Its GI50 is 31.7 µM.

And the TGI (KM12 colon)?
Its TGI is over 100 µM.

And the GI50 (EKVX NSCLC)?
Its GI50 is 49.4 µM.

What about the TGI (EKVX NSCLC) of the same compound?
The TGI was over 100 µM.

What about the GI50 (RXF 393 renal) of the same compound?
Its GI50 is 29.3 µM.

What about the TGI (RXF 393 renal) of the same compound?
Its TGI is over 93.4 µM.

What about the GI50 (SK-MEL-28 melanoma) of the same compound?
Its GI50 is 33.5 µM.

And the TGI (SK-MEL-28 melanoma)?
Its TGI is over 100 µM.

What about the GI50 (NCI-H522 lung) of the same compound?
Its GI50 is 26 µM.

What about the TGI (NCI-H522 lung) of the same compound?
Its TGI is 80 µM.

And the GI50 (HOP-92 NSCLC)?
Its GI50 is 7.85 µM.

What about the TGI (HOP-92 NSCLC) of the same compound?
Its TGI is 49.6 µM.

And the GI50 (SNB-19 CNS)?
The GI50 was 30.8 µM.

What about the TGI (SNB-19 CNS) of the same compound?
The TGI was over 100 µM.

What about the GI50 (HCC-2998 colon) of the same compound?
Its GI50 is 29 µM.

And the TGI (HCC-2998 colon)?
Its TGI is over 100 µM.

What about the GI50 (DU-145 prostate) of the same compound?
The GI50 was 37.1 µM.

What about the TGI (DU-145 prostate) of the same compound?
The TGI was over 100 µM.

What about the GI50 (ACHN renal) of the same compound?
The GI50 was 30.6 µM.

And the TGI (ACHN renal)?
Its TGI is over 90.9 µM.

And the GI50 (HS 578T breast)?
Its GI50 is 29.7 µM.

And the TGI (HS 578T breast)?
The TGI was 99.6 µM.

And the GI50 (MDA-MB-435)?
The GI50 was 31.1 µM.

What about the TGI (MDA-MB-435) of the same compound?
Its TGI is over 100 µM.

What about the GI50 (OVCAR-5 ovarian) of the same compound?
Its GI50 is 38.8 µM.

And the TGI (OVCAR-5 ovarian)?
The TGI was over 100 µM.

And the GI50 (T-47D breast)?
Its GI50 is 25.2 µM.

And the TGI (T-47D breast)?
The TGI was 87.6 µM.

And the GI50 (MOLT-4 leukemia)?
Its GI50 is 32 µM.

What about the TGI (MOLT-4 leukemia) of the same compound?
The TGI was over 100 µM.

What about the GI50 (UACC-62 melanoma) of the same compound?
Its GI50 is 24.3 µM.

What about the TGI (UACC-62 melanoma) of the same compound?
Its TGI is 72.2 µM.

What about the GI50 (SF-268 CNS) of the same compound?
The GI50 was 28.8 µM.

And the TGI (SF-268 CNS)?
Its TGI is over 100 µM.
